Source: patent publication US6423727B1, “Certain thiol inhibitors of endothelin-converting enzyme” (Novartis AG, priority 1998, dated 2002)

Row | Compound | melting point
1 | CC(C)[C@H](S)C(=O)NC1(C(=O)N[C@@H](Cc2ccc(-c3ccccc3)cc2)C(=O)O)CCOCC1 (stereo in doubt) [3-Biphenyl-4-yl-2-{[4-(2-mercapto-3-methyl-butanoylamino)-tetrahydro-pyran-4-carbonyl]-amino}-propionic acid] | 161 to 163 °C
2 | CC(C)[C@H](S)C(=O)NC1(C(=O)N[C@@H](Cc2ccc(-c3ccc(C(F)(F)F)cc3)cc2)C(=O)O)CCCC1 (stereo in doubt) [2-{[1-(2-Mercapto-3-methylbutanoylamino)-cyclopentanecarbonyl]-amino}-3-(4′-trifluoromethyl-biphenyl-4-yl)-propionic acid] | 235 to 236 °C
3 | CC(C)[C@H](S)C(=O)NC1(C(=O)N[C@@H](Cc2cccc3c2CCCC3)C(=O)O)CCCC1 (stereo in doubt) [2-{[1-(2-Mercapto-3-methylbutanoylamino)-cyclopentanecarbonyl]-amino}-3-(5,6,7,8-tetrahydro-naphthalen-1-yl)-propionic acid] | 158 to 164 °C
4 | CC[C@H](C)[C@H](S)C(=O)NC1(C(=O)NC(Cc2ccc(-c3cncnc3)cc2)C(=O)O)CCCC1 (stereo in doubt) [2-{[1-(2-Mercapto-3-methyl-pentanoylamino)-cyclopentanecarbonyl]-amino}-3-(4-pyrimidin-5-yl-phenyl)-propionic acid] | 206 to 208 °C
5 | CC(C)CC(S)C(=O)NC1(C(=O)NC(Cc2c[nH]c3ccccc23)C(=O)O)CCCC1 (stereo not drawn) [Example 13(b), 3-(1H-Indol-3-yl)-2-{[1-(2-mercapto-4-methyl-pentanoylamino)-cyclopentanecarbonyl]-amino}-propionic acid] | 116 to 118 °C
6 | O=C(O)[C@H](Cc1ccc(-c2ccc(C(F)(F)F)cc2)cc1)NC(=O)C1(NC(=O)[C@@H](S)Cc2ccccc2)CCCC1 (stereo in doubt) [2-{[1-(2-Mercapto-3-phenyl-propionylamino)-cyclopentanecarbonyl]-amino}-3-(4′-trifluoromethyl-biphenyl-4-yl)-propionic acid] | 222 to 225 °C
7 | CC(C)[C@H](S)C(=O)NC1(C(=O)N[C@@H](Cc2ccc(-c3cccs3)cc2)C(=O)O)CCCC1 (stereo in doubt) [2-{[1-(2-Mercapto-3-methyl-butanoylamino)-cyclopentanecarbonyl]-amino}-3-[4-(thiophen-2-yl)-phenyl]-propionic acid] | 179 to 181 °C
8 | COc1ccc(-c2ccc(C[C@H](NC(=O)C3(NC(=O)[C@@H](S)C(C)C)CCCC3)C(=O)O)cc2)cc1 (stereo in doubt) [2-{[1-(2-Mercapto-3-methyl-butanoylamino)-cyclopentanecarbonyl]-amino}-3-(4′-methoxy-biphenyl-4-yl)-propionic acid] | 179 to 181 °C
9 | CC(C)[C@H](S)C(=O)NC1(C(=O)N[C@@H](Cc2ccc(-c3ccccc3)cc2)C(=O)O)CCc2ccccc21 (stereo in doubt) [3-Biphenyl-4-yl-2-{[1-(2-mercapto-3-methyl-butyrylamino)-indane-1-carbonyl]-amino}-propionic acid] | 115 to 120 °C
10 | CCCC(S)C(=O)NC1(C(=O)NC(Cc2c[nH]c3ccccc23)C(=O)O)CCCC1 (stereo not drawn) [Example 13(c), 3-(1H-Indol-3-yl)-2-{[1-(2-mercapto-pentanoylamino)-cyclopentanecarbonyl]-amino}-propionic acid] | 102 to 105 °C
11 | CC(C)[C@H](S)C(=O)NC1(C(=O)NC(Cc2ccc(-c3csc(CO)c3)cc2)C(=O)O)CCCC1 (stereo in doubt) [3-[4-(5-Hydroxymethyl-thiophen-3-yl)-phenyl]-2-{[1-(2-mercapto-3-methyl-butanoylamino)-cyclopentanecarbonyl]-amino}-propionic acid] | 155 to 158 °C
12 | COc1cccc(-c2ccc(CC(NC(=O)C3(NC(=O)[C@@H](S)C(C)C)CCCC3)C(=O)O)cc2)c1 (stereo in doubt) [2-{[1-(2-Mercapto-3-methyl-butanoylamino)-cyclopentanecarbonyl]-amino}-3-(3′-methoxy-biphenyl-4-yl)-propionic acid] | 159 to 160 °C
